Results published in patent US6759385B1, “Methods to treat undesirable immune responses” (Regents of the University of Minnesota, priority 1997, dated 2004).

Experiments:
[1] = system: CD8+ depleted spleen cells; experiment: Cytokine secretion in response to TAChR by CD8+ depleted spleen cells (Example IV); assay type: cell-based, mouse; details: s.c. 200 μg/injection, 72 hours
Protocol: Cytokine secretion in response to TAChR by spleen CD4^+ cells in vitro. Five to seven days after the last immunization, spleen cells of three identically treated mice were pooled, and depleted them of CD8^+ cells using paramagnetic beads and rat anti-mouse CD8^+ Ab (Pharmingen, San Diego, Calif.), following the manufacturer's instructions. The CD8^+ depleted, CD4^+ enriched cells were cultured with 10 μg/ml TAChR, or without any stimulus. 24 well plates were used, and duplicate cultures prepared. The supernatants were harvested after 72 hours, and the concentrations of IFN-γ, IL-4 and IL-10 determined in duplicate samples by capture ELISA using anti-INF-γ, anti-IL-4, anti-IL-10 Ab, and recombinant INF-γ, IL-4 and IL-10 (Pharmingen) as standards, and following the manufacturer's instructions.

[2] = system: EMG in IL-4 KO mice immunized with TAChR; experiment: Transfer of CD4+ cells from peptide-treated B6 mice into IL-4 KO mice, EMG; assay type: in vivo, mouse; details: cells three times, three TAChR immunizations, 14 weeks
Protocol: CD4^+ cells from wild type B6 mice that sniffed TACBR CD4^+ epitopes protect IL-4 KO R6 mice from development of EMG. Spleen CD4^+ cells were purified from wild type B6 mice that had sniffed a pool of the AChR a subunit peptide epitopes α50-169, α81-200 and α361-380, or peptide-free PBS (sham-treated). 10×10^6 CD4^+ cells from peptide-treated or sham-treated B6 mice to IL-4 KO B6 mice were administered i.v. (blue arrowhead in FIG. 25), just prior to a single immunization with TAChR (red arrowhead in FIG. 25). The strength of the mice was measured every 2 weeks, for 20 weeks after the TAChR immunization (FIG. 25). […] The lesser frequency of EMG as compared to the experiments described above is likely due to the use of a single immunizing injection of TAChR, or to variability in the susceptibility to EMG in different batch of IL-4 KO mice, similar to that described in other mouse strains.
All IL-4 KO mice treated with CD4^+ cells from sham-treated B6 donors developed EMG from week four onwards (FIG. 26). […] By week 10 (i.e., two weeks after the second TAChR immunization). […]

[3] = system: EMG in B6 mice immunized with TAChR; experiment: Nasal tolerization, EMG symptoms by pancuronium-sensitized inverted hang test (Example I); assay type: in vivo, mouse
Protocol: Mice and Induction of Tolerance. B6 mice were purchased from Jackson Laboratory (Bar Harbor, Me.) and housed at the animal facility of the University of Minnesota. After light anesthesia by i.m. injection of Ketaset (100 mg/kg; Alveco Co., Inc., Fort Dodge, Iowa), the mice received into both nostrils a total of 25 μl of PBS containing 50 μg of peptide Tα150-169, either alone or pooled with equimolar amounts of peptides Tα180-200 and Tα360-378 (referred to as “peptide pool” or “αpool” ). The dose was based on the results of an experiment in which increasing amounts of peptide α150-169 were used (50 μg, 100 μg, 200 μg, 400 μg and 800 μg). […] The tolerogen was administered as a solution instilled into the nostrils, a method of delivery which allowed accurate administration of a defined amount of solution.
In protocol A, peptides or peptide-free PBS were administered two weeks before the first TAChR immunization, and then three more times, on the same day as the three immunizations with TAChR (at one month intervals, see below). In protocol B, peptides or peptide-free PBS were administered weekly, starting two weeks before beginning of the immunization with TAChR, for a total of 14 treatments (two before and 12 during TAChR immunization).
Immunization. Eight-ten week old mice were immunized by subcutaneous injections, along the back and at the base of the tail, with solubilized TAChR (50 μg), peptide Tα150-169 (100 μg), or the peptide pool (100 μg of each peptide). The mice were boosted twice at 4 week intervals with the same amouni of antigen. The antigen solutions (in 100 μl PBS) were emulsified with an equal volume of complete Freund's adjuvant (FA) for the first injection, and with incomplete FA for the boosts. Control mice were injected with PBS emulsified in the appropriate adjuvant.
Evaluation of the Clinical Symptoms of EMG. EMG symptoms were quantified by a forced exercise using the inverted hang technique, sensitized by administration of a minute amount of pancuronium bromide (0-03 mg/kg i.p.) just prior to the beginning of the test (Karachunski et al., 1995). The mice hang from a grid, and the time it takes for the mouse to release its hold and fall three times (“holding time”) was measured. The test was performed on the day of the first nasal administration, on the day before each immunization, and 7-14 days after the third immunization, just before sacrificing the animal. This test is parametric, and gives a quantitative assessment of the severity of the weakness.
The holding time of normal mice was 10.4±2.1 minutes (n=99). […]

## peptide Tα150-169: synthetic peptide corresponding to residues 150-169 of the TAChR α subunit (TYDGTKVSISPESDRPDLST; UniProt P02710 174-193, looked up, fragment)
[1]
  TAChR-induced IFN-γ secretion: did not cause increased
  TAChR-induced IL-4 secretion: significant increase
  TAChR-induced IL-10 secretion: in one of the two cultures tested
[2]
  recipients that developed EMG: Only one mouse
[3]; nasal protocol A (monthly), TAChR-immunized B6 mice
  mice that developed EMG: 42%
[3]; nasal protocol B (weekly), TAChR-immunized B6 mice
  mice with detectable weakness: none
[3]; nasal, lowest dose 50 μg of 50-800 μg
  protection from EMG, dose finding: satisfactory level of protection
[3]; nasal, protocols A and B
  holding time compared with sham-tolerized mice: significantly longer holding times
